Several values for one entry are separate records, joined by “and”; a condition that tells them apart may be missing. Equal values may be shown once. Read-outs that look alike come from different tables or passages of the source.
Experiments:
[1] = tested on: A549 lung cancer cells; experiment: Cell proliferation (MTT assay) in A549 lung cancer cells; type: cell-based, human; conditions: for Fold less potent than 1 in cell proliferation: A549
Experimental: To gauge the ability of each complex to inhibit cancer cell growth, A549 lung cancer cells were treated with 1–3, 4[H][Cl], doxorubicin, and auranofin in a dose responsive manner. Cellular vitality (i.e., mitochondrial reductase activity) was then quantified colorimetrically post treatment using 3-(4,5-dimethylthiazol-2-yl)-2,5-diphenyltetrazolium bromide (MTT assay) (Table 2, Fig. 5).
(§1) Biological preparations and assays
(§2) Experimental compound preparation. Stock solutions of complexes 1–3, 4[H][Cl], auranofin (Tocris Bioscience 4600), and doxorubicin (Tocris Bioscience 2252) were dissolved in DMSO (2.5–10 mM, depending on the compound and its solubility), aliquoted, and stored at -80 °C prior to use.
(§3) Biological Materials and Cell Lines. Cell lines were obtained from the ATCC (A549 and PC-3) and Prof.
Zahid Siddik at M.D. Anderson Cancer Center (A2780 and A2780CP). Cell culture plastic ware (i.e. T-75 flasks, treated 6-well plates, treated 96-well plates, and cell scrapers) were obtained from Fisher Scientific. Cell were cultured in RPMI 1640 culture medium (+2mM glutamine, +25mM HEPES, Corning 10041cv) supplemented with 10% heat-inactivated fetal bovine serum (RMBIO FBS-BBT) and 1X penicillin-streptomycin (Sigma p4333). Unless otherwise noted, incubators were set to 37°C and 5% CO2.
Trypsin (HyClone SH30236.01) and 1X Phosphate Buffered Saline (HyClone SH30258.02, diluted in autoclaved deionized water) were utilized for general cell line maintenance and harvesting. Trace Metal […]
Cell Proliferation Studies. Cells were harvested and seeded into 96-well culture plates (Costar 07-200-90) in 100µL of culture media. They were allowed to incubate overnight at 37 °C in the presence of 5% CO2. […]
and PC-3 at 2000 cells/well. […]
were made. To each well of a 96 well plate was added 100 µL of the appropriate solution. After a total of three days, a […] aliquot of 3 mg/mL tetrazolium dye, 3-(4,5-dimethylthiazol-2-yl)-2,5-diphenyltetrazolium bromide (Alfa Aesar L11939) was added to each well, followed by a 4 hr incubation period at 37 °C. The medium was then removed, the resulting formazan was dissolved in […] DMSO and the respective absorbances were measured at 560–650 nm using a microplate reader (Molecular Devices, Sunnyvale, CA). Absorbance values were corrected for background and then normalized to wells containing untreated cells to allow for plate-to-plate comparisons. The data are shown as mean inhibition of proliferation or growth as a percentage of control cells and are from 2–3 replicate experiments. Resulting dose response curves were subjected to linear regression analysis (Origin by OriginLab, Inc.) for determination of IC50 values.

[2] = Differential pulse voltammetry, quinone reduction potentials; type: physicochemical; conditions: DMSO, 0.1 M [N(nBu)4][PF6], 0.1 mM analyte, vs. SCE; for E 1/2 a (V) DPV: first reduction, semiquinone radical (NQ˙–); for E 1/2 b (V) DPV: second reduction, quinone dianion (NQ2–)
Experimental: A series of electrochemical analyses, including cyclic voltammetry (CV) and differential pulse voltammetry (DPV), were carried out with [NnBu4][PF6] in anhydrous dimethyl sulfoxide (DMSO) in order to evaluate electronic properties of compounds 1–3 and 4[H][Cl]. […] These electrochemical features were attributed to the reduction of the quinone moiety to first produce the semiquinone radical (NQ^–) and then produce the quinone dianion (NQ^2–) forms of compounds 1–3 and 4[H][Cl].[70],[71] The quinone reduction potential in 4[H][Cl] occurs at –0.38 V, the lowest of all the molecules studied, indicative of a positively charged imidazolium ring. The quinone couple at –0.42 V observed for compound 1 is ascribed to the presence of bis(NHC). The same wave in compound 3 appears at a more negative potential (–0.47 V), presumably due to greater trans effects excreted by quinone annulated NHC ligand than the metal-bound chloride. This analysis agrees well with the differences in the observed δ^13C (Au–Ccarbene) resonances for compounds 1 and 3. […]
mM) as referenced to SCE (internal standard Fc0/+, adjusted to 0.435 V vs. SCE).

[3] = tested on: thioredoxin reductase (TrxR); conditions: 6 h exposure; for Inhibition of TrxR at higher concentrations: A549, 1.25–5.0 μM, lipoate reduction; for Inhibition of TrxR at low concentrations: A549, 0.1–0.6 μM, lipoate reduction over 180 min
Experimental: Briefly, plateau phase A549 cells were exposed to variable doses of complexes 1, 3, 4[H][Cl], a 2 : 1 molar ratio of 4[H][Cl] and 5 (cocktail), auranofin, and doxorubicin for 6 h. Post treatment, the live cells were monitored colorimetrically over 180 min for their ability to reduce lipoate (Fig. 8a).

[4] = tested on: A549 lung cancer cells; experiment: ICP-MS detection of intracellular Au (cellular uptake)
[5] = tested on: A549 cells; experiment: Detection of intracellular ROS by flow cytometry (CM-H2DCFDA); type: cell-based, human; conditions: for Increase in intracellular ROS (fluorescence cell population shift): A549, 2.5 μM, 6 h incubation, CM-H2DCFDA; for Intracellular ROS increase, in words: A549, 0.625–2.5 μM, 6 h
[6] = tested on: 2780CP ovarian; experiment: Cell proliferation (MTT assay) in 2780CP ovarian cells; type: cell-based, human; conditions: Homo sapiens; isogenic to A2780, multi-drug resistance; Table 3
Experimental: (§4) Further anti-proliferation studies were carried out with complex 1 and its naphthoquinone component 4[H][Cl] using the following cell lines: A2780 ovarian (a wt-p53 cell line sensitive to platinum treatment), 2780CP ovarian (isogenic to A2780 but expressing multi-drug resistance (MDR)), and PC-3 prostate (p53 null) (Table 3).
as §1, §2, §3
(§5) Zahid Siddik at M.D. Anderson Cancer Center (A2780 and A2780CP). Cell culture plastic ware (i.e. T-75 flasks, treated 6-well plates, treated 96-well plates, and cell scrapers) were obtained from Fisher Scientific. […]
(§6) were made. […] The medium was then removed, the resulting formazan was dissolved in […] DMSO and the respective absorbances were measured at 560–650 nm using a microplate reader (Molecular Devices, Sunnyvale, CA). Absorbance values were corrected for background and then normalized to wells containing untreated cells to allow for plate-to-plate comparisons. […]

[7] = tested on: DNA duplex (5'CCGCAGCCA3'/5'TGGCTGCGG3'); experiment: Thermal denaturation of a DNA duplex; type: binding; conditions: 1 molar equivalent, 5 μM complex and duplex
[8] = tested on: PC-3 prostate; experiment: Cell proliferation (MTT assay) in PC-3 prostate cells; type: cell-based, human; conditions: Homo sapiens, Prostate cell; p53 null; Table 3
Experimental: as §4, §1, §2, §3, §5, §6

[9] = tested on: A2780 ovarian; experiment: Cell proliferation (MTT assay) in A2780 ovarian cells; type: cell-based, human; conditions: Homo sapiens, A2780; wt-p53, platinum sensitive; Table 3
Experimental: as §4, §1, §2, §3, §5, §6

[10] = Serum protein binding: free Au in fetal bovine serum by ICP-MS; type: in vitro ADME; conditions: 25 μM in FBS, 37 °C, methanolic extracts, up to 100 h
Experimental: To assess potential drug protein interactions, samples of fetal bovine serum (FBS) were treated with 25 μM 1, 3, and auranofin prior to incubating at 37 °C. Aliquots were taken and the free Au (non-protein bound, methanolic extracts) content was analyzed by ICP-MS (Fig. 6b).
Serum Protein Binding Studies.
aliquots were stored at -80°C.
in an Edvotek microcentrifuge. […] Samples
Detection of ROS by Flow Cytometry.
cells were treated with vehicle only.
g) at 5 °C. […] The pellet was
Control samples of unstained cells,
overnight. […] Post incubation, the media was
After incubation, the dye-
Cells were then imaged fluorescently
Lipoate Inhibition Assays.
well culture plates. […] The next day, appropriate
were added to each well. […] Afterwards, the liquid was then

[11] = A549, ratio of IC50 to that of 1 (Table 2)
[12] = A549 lung cancer cells, MTT, 72 h, read-out: IC50

Compound	Fold difference relative to 1 [1, 11]	IC50 [1, 12]	E 1/2 a (V) DPV [2]	E 1/2 b (V) DPV [2]	Inhibition of TrxR at higher concentrations [3]	Fold less potent than 1 in cell proliferation [1]	Intracellular Au levels (uptake), in words ([4]; A549, ICP-MS)	Increase in intracellular ROS (fluorescence cell population shift) [5]	IC50 ([1]; Homo sapiens, A549, 72 h, A549 lung cancer cells, MTT, 72 h, read-out: IC50)	IC50 ([1]; Homo sapiens, A549, Table 3, error = standard error from the mean, read-out: IC50 A549 lung)	IC50 [6]	Thermal stabilization of DNA [7]	IC50 [8]	IC50 [9]	Inhibition of TrxR at low concentrations [3]	Increase in intracellular Au concentration as compared to complex 1 ([4]; A549, regardless of dose)	Free Au (non-protein bound) content over time [10]	Intracellular ROS increase, in words [5]	Fold difference relative to 1 [1]	Intracellular Au levels (uptake), in words [4]
Cc1cc(C)c(-n2c3c(n(-c4c(C)cc(C)cc4C)[c]2=[Au]([Cl])=[c]2n(-c4c(C)cc(C)cc4C)c4c(n2-c2c(C)cc(C)cc2C)C(=O)c2ccccc2C4=O)C(=O)c2ccccc2C3=O)c(C)c1 [Complex 2, [bis(1,3-dimesityl-4,5-naphthoquino-imidazol-2-ylidene)-gold(I)] chloride]	1	75 nM	–0.46 V	–1.31 V	–	–	–	–	–	–	–	–	–	–	–	–	–	–	–	–
Cc1cc(C)c(-[n+]2ccn(Cc3ccccc3)[c]2[Au-][c]2n(Cc3ccccc3)cc[n+]2-c2c(C)cc(C)cc2C)c(C)c1.[Cl-] [Complex 5, bis(1-benzyl-3-mesityl-imidazol-2-ylidene)-gold(I) chloride, reference compound]	9.72	710 nM	–	–	became evident	~10 fold	identical	~11 fold	–	–	–	–	–	–	–	–	–	–	–	–
Cc1cc(C)c(-n2c[n+](-c3c(C)cc(C)cc3C)c3c2C(=O)c2ccccc2C3=O)c(C)c1 [4[H][Cl], 1,3-dimesitylnaphthoquinimidazolium]	13.6	–	–0.38 V	–1.15 V	became evident	~14 fold	–	~11 fold	990 ± 120 nM	994 ± 120 nM	626 ± 117 nM	no thermal stabilization	136 ± 20 nM	159 ± 58 nM	–	–	–	–	–	–
CC(=O)OC[C@H]1O[C@@H]([S-])[C@H](OC(C)=O)[C@@H](OC(C)=O)[C@@H]1OC(C)=O.CCP(CC)CC.[Au+] [Auranofin, reference compound]	22.9	1670 nM	–	–	–	23 fold	–	–	–	–	–	–	–	–	inhibition of TrxR was apparent	2–5 fold	decreased in a time dependent manner	minimal or no ROS increase	–	–
COc1cccc2c1C(=O)c1c(O)c3c(c(O)c1C2=O)C[C@@](O)(C(=O)CO)C[C@@H]3O[C@H]1C[C@H](N)[C@H](O)[C@H](C)O1 [Doxorubicin, reference compound]	–	–	–	–	remained inactive	–	–	–	–	–	–	Significant DNA stabilization	–	–	little to no inhibition	–	–	minimal or no ROS increase	1.41	–
Cc1cc(C)c(-n2c3c([n+](-c4c(C)cc(C)cc4C)[c]2[Au-][Cl])C(=O)c2ccccc2C3=O)c(C)c1 [Complex 3, 1,3-dimesityl-4,5-naphthoquino-imidazol-2-ylidene)-gold(I) chloride]	165	12100 nM	–0.47 V	–1.31 V	remained inactive	> 150 fold and 165 fold	–	–	–	–	–	–	–	–	–	–	–	minimal or no ROS increase	–	no intracellular Au was detected

Source: PMC5859730, “Dual targeting of the cancer antioxidant network with 1,4-naphthoquinone fused Gold(I) N-heterocyclic carbene complexes” (Chemical Science, 2017)
